Literature values as cited in patent publication US11643417B2, “Tetrahydrobenzofurodiazepinone compound and pharmaceutical use thereof” (priority 2020, dated 2023).

How the values were obtained:
[1] = tested on: mouse cancer-bearing model; details: Non-Patent Documents 16 and 17; cited from earlier work
mouse LN model animals = details: Non-Patent Document 18; cited from earlier work
[2] = tested on: cells derived from chronic myelogenous leukemia; details: Non-Patent Document 15; cited from earlier work

For `C[C@H]1CN(c2c(NC(=O)c3ccc(F)c(-c4c(F)cccc4F)n3)cnc3c2CC[C@H]3O)C[C@@H](N)[C@@H]1O` [INCB053914], the “tumor growth inhibitory effect” value [1] is given as “tumor growth inhibitory effect”.
For `O=C1NC(=O)/C(=C/c2cccc(C(F)(F)F)c2)S1` [SMI-4a], the glomerular damage (mouse LN model animals) is listed as “reduce glomerular damage”, the mortality (mouse LN model animals) is listed as “improve mortality” and the urinary albumin/creatinine ratio (mouse LN model animals) is listed as “reduce urinary albumin/creatinine ratio”. The “growth inhibitory and apoptosis-inducing effects” value [2] was “growth inhibitory and apoptosis-inducing effects”.
